Test results: ChEMBL document CHEMBL1201862, “PubChem BioAssay data set” (2004)
Structures can show the parent of a compound that is named as a salt. Active and inactive are the calls of the source.

What was measured:
[1] = biological target: Polyadenylate-binding protein 1 (Homo sapiens, UniProt P11940); test: MLLE domain peptide-binding blockers, IC50 – biochemical, fluorescence polarization, FITC-PAM2 peptide, dose response (AID 602259); type: functional; details: read-out: IC50_Mean
[2] = biological target: Calcium/calmodulin-dependent protein kinase type II subunit gamma (Homo sapiens, UniProt Q13555); type: functional
[3] = biological target: Mitogen-activated protein kinase kinase kinase 20 (Homo sapiens, UniProt Q9NYL2); type: functional
Activated CDC42 kinase 1 = Activated CDC42 kinase 1 (Homo sapiens, UniProt Q07912); test: Navigating the Kinome. Panel member name: ACK1; type: functional
[4] = biological target: Calcium/calmodulin-dependent protein kinase type II subunit delta (Homo sapiens, UniProt Q13557); type: functional
[5] = biological target: STE20-like serine/threonine-protein kinase (Homo sapiens, UniProt Q9H2G2); type: functional
[6] = biological target: Megakaryocyte-associated tyrosine-protein kinase (Homo sapiens, UniProt P42679); type: functional;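 note: affinity measured as one member of a kinase panel (Navigating the Kinome) against MATK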
[7] = biological target: Tyrosine-protein kinase SYK (Homo sapiens, UniProt P43405); type: functional
[8] = biological target: Mitogen-activated protein kinase 8 (Homo sapiens, UniProt P45983); type: functional;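 note: value comes from one member of a kinome-wide kinase profiling panel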
[9] = biological target: Receptor-type tyrosine-protein kinase FLT3 (Homo sapiens, UniProt P36888); type: functional;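 note: FLT3 was tested as one member of a kinome-wide kinase panel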
[10] = biological target: Serine/threonine-protein kinase Chk1 (Homo sapiens, UniProt O14757); type: functional;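 note: measured as one member of a kinome-wide kinase profiling panel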
[11] = biological target: Serine/threonine-protein kinase Nek4 (Homo sapiens, UniProt P51957); type: functional
[12] = biological target: Dual specificity tyrosine-phosphorylation-regulated kinase 3 (Homo sapiens, UniProt O43781); type: functional;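 note: measured as one member of a broad kinase panel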
[13] = biological target: Protein kinase C iota type (Homo sapiens, UniProt P41743); type: functional;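 note: measured within a kinome-wide kinase panel, PRKCI as panel member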
[14] = biological target: Fibroblast growth factor receptor 1 (Homo sapiens, UniProt P11362); type: functional
[15] = biological target: Death-associated protein kinase 3 (Homo sapiens, UniProt O43293); type: functional;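 note: measured as one member of a kinome-wide profiling panel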
[16] = biological target: cAMP-dependent protein kinase catalytic subunit PRKX (Homo sapiens, UniProt P51817); type: functional
[17] = biological target: Receptor tyrosine-protein kinase erbB-2 (Homo sapiens, UniProt P04626); test: Navigating the Kinome. Panel member name: ERBB2; type: functional
[18] = biological target: Serine/threonine-protein kinase PLK3 (Homo sapiens, UniProt Q9H4B4); type: functional
[19] = biological target: Casein kinase I isoform alpha (Homo sapiens, UniProt P48729); type: functional
[20] = biological target: Tyrosine-protein kinase ITK/TSK (Homo sapiens, UniProt Q08881); type: functional;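 note: affinity for ITK measured as one member of a broad kinase panel profiling binding across the kinome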
[21] = biological target: Casein kinase II subunit alpha (Homo sapiens, UniProt P68400); type: functional
[22] = microbe, parasite or virus in culture; type: functional; details: Mycobacterium tuberculosis
Exodeoxyribonuclease V = Exodeoxyribonuclease V (Escherichia coli (strain K12), UniProt P04993+P07648+P08394); test: RecBCD inhibition via phage-restricted bacterial growth – absorbance, V66 E. coli, mutant T4 phage, counter-screen for AddAB inhibitor project, dose response (AID 492957); type: functional, cell-based, Escherichia coli str. K-12 substr. MG1655
[23] = HEK-293T viability loss, compound-treated – cell-based, uHTS hits, cytotoxicity control for B/T-cell NF-kB inhibitor project, dose response (AID 489019); type: functional;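 note: IC50 reflects cytotoxicity as loss of cell viability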
[24] = Luminescence Cell-Based Dose Response to Identify Activators of Luciferase Translation or Activity in H4-C Neuroglioblastoma Cells. [Related pubchem assays: 1829 (Project Summary), 1814 (Primary HTS)]; type: functional
[25] = Luminescence Cell-Based Dose Response to Identify Activators of 5'UTR Stem-Loop Driven Prion Protein mRNA Translation in H4-C Neuroglioblastoma Cells. [Related pubchem assays: 1829 (Project Summary), 1814 (Primary HTS)]; type: functional
H4 = test: Luminescence Cell-Based Dose Response HTS to Identify Activators of 5'UTR Stem-Loop Driven Prion Protein mRNA Translation in H4 Neuroglioblastoma Cells. [Related pubchem assays: 1829 (Project Summary), 1814 (Primary HTS)]; type: functional; details: Homo sapiens
[26] = biological target: DNA repair protein RAD52 homolog (Homo sapiens, UniProt P43351); type: functional, biochemical
Streptokinase A = biological target: T1, Streptokinase A (Streptococcus pyogenes serotype M1, UniProt P10520); test: viability-normalized secreted streptokinase activity reduction – plasminogen activation absorbance, OD405, dose response (AID 1914); type: functional, Streptococcus pyogenes M1 GAS;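 note: secreted streptokinase activity via plasminogen activation per viability signal from cell pellet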
T1 sequence (P10520 whole entry): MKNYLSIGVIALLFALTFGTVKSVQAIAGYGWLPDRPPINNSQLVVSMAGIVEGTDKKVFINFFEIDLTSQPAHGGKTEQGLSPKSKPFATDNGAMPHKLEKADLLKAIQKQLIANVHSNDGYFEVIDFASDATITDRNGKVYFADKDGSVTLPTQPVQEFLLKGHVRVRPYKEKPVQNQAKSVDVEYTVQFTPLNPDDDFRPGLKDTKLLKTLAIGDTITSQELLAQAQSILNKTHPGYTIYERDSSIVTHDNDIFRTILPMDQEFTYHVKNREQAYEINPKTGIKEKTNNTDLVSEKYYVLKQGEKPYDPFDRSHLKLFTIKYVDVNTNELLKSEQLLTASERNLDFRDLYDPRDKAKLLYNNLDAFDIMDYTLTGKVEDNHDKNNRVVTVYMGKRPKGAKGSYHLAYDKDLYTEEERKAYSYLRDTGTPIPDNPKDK

HEK293 = test: membrane integrity loss in HEK cells – cell-based, fluorescence, cytotoxicity control for IDE activator project, dose response (AID 588440); type: functional; details: Homo sapiens;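 note: cytotoxicity by LDH release measuring loss of membrane integrity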

Sequence of Fibroblast growth factor receptor 1 (P11362 whole entry): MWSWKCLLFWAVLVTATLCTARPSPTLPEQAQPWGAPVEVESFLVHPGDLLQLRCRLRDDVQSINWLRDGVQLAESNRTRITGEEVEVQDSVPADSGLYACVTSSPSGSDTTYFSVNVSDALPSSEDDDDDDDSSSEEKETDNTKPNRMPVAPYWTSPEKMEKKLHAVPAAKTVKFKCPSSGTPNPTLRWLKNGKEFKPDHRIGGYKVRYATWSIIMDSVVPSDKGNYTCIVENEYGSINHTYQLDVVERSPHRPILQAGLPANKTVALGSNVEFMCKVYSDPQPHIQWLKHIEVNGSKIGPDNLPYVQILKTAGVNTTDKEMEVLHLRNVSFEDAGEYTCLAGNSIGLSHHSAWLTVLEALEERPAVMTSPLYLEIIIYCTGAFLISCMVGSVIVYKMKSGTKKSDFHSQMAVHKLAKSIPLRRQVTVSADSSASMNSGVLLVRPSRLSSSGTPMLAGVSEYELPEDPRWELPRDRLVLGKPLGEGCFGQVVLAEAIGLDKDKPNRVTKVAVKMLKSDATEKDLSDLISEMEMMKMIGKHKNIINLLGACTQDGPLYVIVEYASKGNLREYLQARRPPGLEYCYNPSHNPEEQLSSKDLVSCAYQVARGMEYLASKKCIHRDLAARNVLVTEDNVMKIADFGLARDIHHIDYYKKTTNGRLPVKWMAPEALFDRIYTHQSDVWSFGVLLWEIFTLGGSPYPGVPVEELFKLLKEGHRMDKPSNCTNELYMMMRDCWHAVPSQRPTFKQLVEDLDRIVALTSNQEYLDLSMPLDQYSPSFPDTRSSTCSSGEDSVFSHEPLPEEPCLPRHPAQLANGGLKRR
Sequence of Casein kinase I isoform alpha (P48729 whole entry, canonical isoform): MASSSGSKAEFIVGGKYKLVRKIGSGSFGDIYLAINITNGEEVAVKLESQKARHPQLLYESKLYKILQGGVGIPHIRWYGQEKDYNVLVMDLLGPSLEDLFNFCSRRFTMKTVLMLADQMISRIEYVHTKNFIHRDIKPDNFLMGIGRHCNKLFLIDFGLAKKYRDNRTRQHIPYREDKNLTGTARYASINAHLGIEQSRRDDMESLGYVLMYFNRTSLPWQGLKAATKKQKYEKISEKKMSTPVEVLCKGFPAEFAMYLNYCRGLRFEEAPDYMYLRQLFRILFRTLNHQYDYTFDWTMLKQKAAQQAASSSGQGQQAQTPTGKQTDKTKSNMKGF
Sequence of Polyadenylate-binding protein 1 (P11940 whole entry, the tested form may be a part): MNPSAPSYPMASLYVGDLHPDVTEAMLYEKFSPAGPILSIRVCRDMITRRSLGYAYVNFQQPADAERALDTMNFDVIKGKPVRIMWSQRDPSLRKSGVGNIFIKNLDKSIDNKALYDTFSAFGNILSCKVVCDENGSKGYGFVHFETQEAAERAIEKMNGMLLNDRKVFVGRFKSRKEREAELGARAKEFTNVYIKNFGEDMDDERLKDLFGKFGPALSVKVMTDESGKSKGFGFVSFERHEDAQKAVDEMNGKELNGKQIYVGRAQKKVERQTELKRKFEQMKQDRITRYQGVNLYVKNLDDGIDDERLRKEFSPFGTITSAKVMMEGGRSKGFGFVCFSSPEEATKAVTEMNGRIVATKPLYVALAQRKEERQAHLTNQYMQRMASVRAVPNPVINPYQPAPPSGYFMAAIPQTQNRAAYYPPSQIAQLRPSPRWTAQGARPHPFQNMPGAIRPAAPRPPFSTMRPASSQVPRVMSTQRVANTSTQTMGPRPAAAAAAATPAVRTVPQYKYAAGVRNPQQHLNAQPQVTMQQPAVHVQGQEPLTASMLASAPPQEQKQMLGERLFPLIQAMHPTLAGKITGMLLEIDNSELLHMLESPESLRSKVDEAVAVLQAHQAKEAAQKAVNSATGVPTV
Sequence of Activated CDC42 kinase 1 (Q07912 whole entry): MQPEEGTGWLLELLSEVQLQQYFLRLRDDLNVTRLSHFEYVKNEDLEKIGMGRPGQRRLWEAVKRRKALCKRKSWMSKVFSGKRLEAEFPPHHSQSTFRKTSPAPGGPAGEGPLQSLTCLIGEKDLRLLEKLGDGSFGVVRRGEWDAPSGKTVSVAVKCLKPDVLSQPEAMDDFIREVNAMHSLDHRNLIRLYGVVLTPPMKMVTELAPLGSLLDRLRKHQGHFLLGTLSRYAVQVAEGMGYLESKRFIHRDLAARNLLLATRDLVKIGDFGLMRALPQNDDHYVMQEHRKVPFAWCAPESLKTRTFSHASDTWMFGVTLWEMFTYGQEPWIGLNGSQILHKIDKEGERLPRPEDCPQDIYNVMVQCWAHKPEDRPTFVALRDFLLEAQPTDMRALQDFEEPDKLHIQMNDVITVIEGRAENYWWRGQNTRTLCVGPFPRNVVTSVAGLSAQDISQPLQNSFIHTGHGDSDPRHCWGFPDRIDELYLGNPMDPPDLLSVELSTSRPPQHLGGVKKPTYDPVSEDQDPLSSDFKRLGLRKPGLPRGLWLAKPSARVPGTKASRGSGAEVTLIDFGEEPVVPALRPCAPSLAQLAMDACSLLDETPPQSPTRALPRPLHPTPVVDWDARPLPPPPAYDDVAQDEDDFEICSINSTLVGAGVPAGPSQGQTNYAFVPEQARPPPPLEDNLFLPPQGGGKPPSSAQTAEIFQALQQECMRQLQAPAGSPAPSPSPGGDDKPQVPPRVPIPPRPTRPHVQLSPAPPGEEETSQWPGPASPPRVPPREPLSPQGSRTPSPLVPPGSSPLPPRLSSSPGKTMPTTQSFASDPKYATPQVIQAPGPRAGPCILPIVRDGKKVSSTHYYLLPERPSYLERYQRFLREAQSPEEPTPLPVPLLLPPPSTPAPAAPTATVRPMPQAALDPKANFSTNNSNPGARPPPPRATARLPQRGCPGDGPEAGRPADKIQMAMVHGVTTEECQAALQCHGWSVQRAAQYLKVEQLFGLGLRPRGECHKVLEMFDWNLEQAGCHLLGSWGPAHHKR
Sequence of Receptor tyrosine-protein kinase erbB-2 (P04626 whole entry): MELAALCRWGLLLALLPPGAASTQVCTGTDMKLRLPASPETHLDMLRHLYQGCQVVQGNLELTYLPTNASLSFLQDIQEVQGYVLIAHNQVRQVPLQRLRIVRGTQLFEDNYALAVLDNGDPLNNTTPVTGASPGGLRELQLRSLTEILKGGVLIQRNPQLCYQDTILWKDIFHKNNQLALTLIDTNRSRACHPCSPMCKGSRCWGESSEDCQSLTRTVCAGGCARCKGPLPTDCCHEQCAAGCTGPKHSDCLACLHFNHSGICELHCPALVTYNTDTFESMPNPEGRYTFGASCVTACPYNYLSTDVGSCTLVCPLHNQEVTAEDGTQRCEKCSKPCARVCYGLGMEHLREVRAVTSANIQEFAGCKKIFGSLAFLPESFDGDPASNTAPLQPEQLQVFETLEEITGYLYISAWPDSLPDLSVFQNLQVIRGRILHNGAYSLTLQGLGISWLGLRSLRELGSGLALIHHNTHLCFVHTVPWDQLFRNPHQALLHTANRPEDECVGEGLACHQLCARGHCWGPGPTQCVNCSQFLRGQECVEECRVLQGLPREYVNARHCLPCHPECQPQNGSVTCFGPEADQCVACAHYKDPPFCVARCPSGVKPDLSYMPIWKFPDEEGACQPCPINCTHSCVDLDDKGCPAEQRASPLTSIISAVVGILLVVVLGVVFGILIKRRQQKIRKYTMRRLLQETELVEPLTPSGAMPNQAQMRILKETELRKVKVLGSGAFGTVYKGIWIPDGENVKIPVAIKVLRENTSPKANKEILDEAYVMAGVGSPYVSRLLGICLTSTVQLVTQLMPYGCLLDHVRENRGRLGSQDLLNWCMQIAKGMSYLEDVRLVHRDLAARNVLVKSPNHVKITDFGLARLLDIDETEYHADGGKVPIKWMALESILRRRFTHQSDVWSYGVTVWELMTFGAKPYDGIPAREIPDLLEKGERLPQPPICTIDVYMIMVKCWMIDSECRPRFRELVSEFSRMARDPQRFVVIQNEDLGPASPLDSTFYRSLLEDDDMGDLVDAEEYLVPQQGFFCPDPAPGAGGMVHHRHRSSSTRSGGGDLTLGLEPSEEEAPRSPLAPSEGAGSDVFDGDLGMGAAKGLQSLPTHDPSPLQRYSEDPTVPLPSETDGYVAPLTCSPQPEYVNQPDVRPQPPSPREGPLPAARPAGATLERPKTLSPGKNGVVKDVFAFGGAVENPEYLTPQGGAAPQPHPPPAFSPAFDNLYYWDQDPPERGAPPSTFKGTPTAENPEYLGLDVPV
Sequence of Death-associated protein kinase 3 (O43293 whole entry): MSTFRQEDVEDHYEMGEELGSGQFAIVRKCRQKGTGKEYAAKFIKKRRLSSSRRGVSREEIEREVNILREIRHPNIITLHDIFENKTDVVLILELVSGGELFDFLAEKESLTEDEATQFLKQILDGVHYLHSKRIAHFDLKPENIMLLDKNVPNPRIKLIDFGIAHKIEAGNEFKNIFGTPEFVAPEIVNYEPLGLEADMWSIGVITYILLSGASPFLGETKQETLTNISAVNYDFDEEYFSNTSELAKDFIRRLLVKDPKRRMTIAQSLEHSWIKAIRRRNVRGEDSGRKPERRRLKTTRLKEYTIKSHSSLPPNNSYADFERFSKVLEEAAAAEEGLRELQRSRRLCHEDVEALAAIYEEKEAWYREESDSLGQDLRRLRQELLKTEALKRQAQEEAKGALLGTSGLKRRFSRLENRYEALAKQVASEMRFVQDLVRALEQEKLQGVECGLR
Sequence of Serine/threonine-protein kinase Chk1 (O14757 whole entry): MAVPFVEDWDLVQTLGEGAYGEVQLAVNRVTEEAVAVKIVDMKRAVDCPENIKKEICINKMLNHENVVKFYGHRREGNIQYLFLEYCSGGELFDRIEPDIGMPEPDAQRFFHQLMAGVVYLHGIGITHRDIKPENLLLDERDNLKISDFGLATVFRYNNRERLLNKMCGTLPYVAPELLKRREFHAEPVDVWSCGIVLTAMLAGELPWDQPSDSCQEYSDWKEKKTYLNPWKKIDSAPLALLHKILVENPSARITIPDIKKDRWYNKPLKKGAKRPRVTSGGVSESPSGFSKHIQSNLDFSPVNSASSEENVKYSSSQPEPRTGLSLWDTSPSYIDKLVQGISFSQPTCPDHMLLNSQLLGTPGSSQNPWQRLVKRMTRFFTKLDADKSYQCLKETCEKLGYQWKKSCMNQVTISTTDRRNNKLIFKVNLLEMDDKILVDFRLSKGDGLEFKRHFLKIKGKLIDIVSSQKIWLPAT

CC[C@@H](CO)NC(=O)[C@@H]1C=C2c3cccc4c3c(cn4C)C[C@H]2N(C)C1 [METHYSERGIDE MALEATE]
inactive: IC50 [1] 32.2 µM

CN1CCN(c2nc(C3=C(c4c[nH]c5ccccc45)C(=O)NC3=O)c3ccccc3n2)CC1 [SOTRASTAURIN]
active: Ki [2] 0.0794 µM | Ki [4] 0.0316 µM | Ki [5] 0.126 µM | Ki [12] 6.31 µM | Ki [13] 0.398 µM | Ki [17] 0.794 µM
inactive: Ki [3] > 7.94 µM | Ki (Activated CDC42 kinase 1) > 3.98 µM | Ki [6] > 2 µM | Ki [7] > 1.58 µM | Ki [8] > 3.98 µM | Ki [9] > 1.58 µM | Ki [10] > 5.01 µM | Ki [11] > 6.31 µM | Ki [14] > 2.51 µM | Ki [15] > 3.16 µM | Ki [16] > 2.51 µM | Ki [18] > 7.94 µM | Ki [19] > 5.01 µM | Ki [20] > 1.58 µM | Ki [21] > 6.31 µM

CCC(C)n1c(NC(=O)c2ccccc2)c(C#N)c2nc3ccccc3nc21 (stereo unspecified)
active: CC50 [22] 28.1 µM

CCN1/C(=C\c2ccc3ccccc3[n+]2CC)Sc2cc(C)ccc21
> 120 µM (not active): EC50 (H4)
> 12 µM (not active): EC50 [24] | EC50 [25]
inactive: IC50 (Exodeoxyribonuclease V) 72.8 µM | IC50 [23] > 80 µM

CCCCCCCCCCOC(=O)C[n+]1c(COc2ccc(C)cc2)n(C)c2ccccc21
> 150 µM (not active): EC50 (Streptokinase A)
active: AC50 [26] 9.47 µM | IC50 (HEK293) 7.28 µM
